Source: patent publication US4634706A, “Griseolic acid derivatives, and their use as enzyme inhibitors” (Sankyo Company Limited, priority 1983, dated 1987)

Columns and labels:
[1] = test system: blood viscosity; experiment: Improvement in blood viscosity; format: in vivo, male Wistar rats; parameters: key to blood viscosity, shear rates without significant rise after ligation: for each shear rate where no significant rise in […] was noted (P<0.05) between the pre-ligation and post-ligation values there is printed a single plus sign (+); ++++: no significant difference in viscosity between the pre-ligation and post-ligation values at any of the four shear rates; settings: for minimal effective dose: Rattus norvegicus, read-out: dose at which significant improvement (i.e. stabilisation) in blood viscosity was achieved
Method: The test animals were male Wistar rats; they were employed in groups of five for each test. The rats were anaesthetized with pentobartibal and simultaneously the test compound was administered orally at the dose specified in Table 5 in a carboxymethyl cellulose suspension. Promptly, an incision was made in the neck and a 0.5 ml blood sample was collected from the jugular vein. The viscosity of this sample was determined by means of a rotational viscometer.
Thirty minutes after oral administration, the common carotid artery was ligated bilaterally. One hour thereafter (i.e. 90 minutes after oral administration), a further 0.5 ml blood sample was collected from the jugular vein and its viscosity was determined in the same manner.
The mean blood viscosity of each test animal and its standard deviation were calculated for each of the four shear rates (37.5, 75, 150 and 375 s^-1) of the rotational viscometer. The pre-ligation and post-ligationvalues of each group (i.e. the change over a period of 60 minutes) were analysed by the statistical t-test. The results are reported in Table 5 as follows: for each shear rate where no significant rise in […] was noted (P<0.05) between the pre-ligation and post-ligation values there is printed a single plus sign (+). Thus, for example, if there was no significant difference in viscosity between the pre-ligation and post-ligation values at any of the four shear rates, the results will be ++++.

[2] = target: cAMP PDE; experiment: Phosphodiesterase (PDE) inhibitory activity, cAMP substrate; format: biochemical, rat
Method: (§1) The test was carried out following essentially the method of A. L. Pichard and Y. U. Chung [Journal of Biological Chemistry, 251, 5726-5737 (1976)]. A crude enzymatic solution derived from rat brains was used as the source of cAMP PDE.
(§2) ^14 C-labeled cAMP was used as the substrate. It was employed in a 0.2M Tris-hydrochloric acid buffer solution (pH 8.0) in an amount sufficient to provide a final concentration of 0.14 μM. "Tris" is tris(hydroxymethyl)aminomethane. The substrate solution was mixed with an appropriate amount of the compound under test dissolved in 2-5 μl of dimethyl sulfoxide and with 20 μl of a snake venom solution and 40 μl of the crude enzyme solution. Sufficient Tris-hydrochloric acid buffer was added to make a total volume of 100 μl. The mixture was allowed to react at 30° C. for 20 minutes. At the end of this time, the reaction mixture was treated with an Amberlite (trade mark) IRP-58 resin and the level of residual adenosine radioactivity in the product was determined.

[3] = target: cGMP PDE; experiment: Phosphodiesterase (PDE) inhibitory activity, cGMP substrate; format: biochemical; settings: cGMP as substrate, crude enzyme from rat brains; read-out: I50 cGMP PDE
Method: as §1, §2
The experiment was repeated, except that cyclic guanosine monophosphate (cGMP) was employed as the substrate instead of cAMP. The I50 value against cGMP PDE was also calculated.

[4] = test system: erythrocytes; experiment: Effect on recovery of erythrocyte flexibility reduced by acidosis; format: in vivo, rat; settings: 50 mg/kg orally, blood pH 5.1, P < 0.05
Method: Mature male rats were employed in this experiment in groups of five for each test. The compound under test was suspended in an aqueous solution of carboxymethylcellulose and administered orally. Two hours after administration, the rats were anaesthetized with pentobarbital and a 5 ml blood sample was taken from the heart. Its pH was adjusted to 5.1 and the sample was allowed to stand. The fluidity of the erythrocytes was tested by a slightly modified version of the method reported in the Journal of Clinical Pathology, 29, 855-858 (1976). Control animals were treated similarly, except that the carboxymethylcellulose solution contained no active compound. The results are reported as the mean values for each group plus or minus the statistical error and the statistical significance was calculated by comparison with the control group.

[5] = test system: cerebral blood flow; experiment: Improving cerebral blood flow; format: in vivo, rabbit; settings: 10 mg/kg
Excerpt: The "duration (T1/2)" is the time in minutes required for the increase in cerebral blood flow to reduce by one half.

[6] = test system: anoxia-induced cerebral dysfunction; experiment: Promotion of recovery from anoxia-induced cerebral dysfunction (EEG recovery); format: in vivo, rat; settings: breathing terminated 120 seconds
Method: In this experiment, the breathing of a rat was terminated for sufficient time for its EEG (electroencephalograph) trace to become flat and the time required for the EEG to show further activity after breathing had restarted was determined.
The rat was immobilized by the administration of pancuronium bromide, and its spontaneous EEG was recorded. After the rat had been roused from anaesthesia, the compound under test suspended in an aqueous solution of carboxymethylcellulose was administered intraperitoneally to the rat. Throughout the experiment, the rat was caused to breathe artificially; 30 minutes after administration of the test compound, artificial breathing was terminated for 120 seconds. After breathing again commenced, the time required for the EEG to recover (the recovery time) was determined.
A control experiment was carried out in which a carboxymethylcellulose suspension alone was administered with no active compound.
The recovery time is reported in the Table in seconds as the mean of the recovery times of all of the animals in the relevant test group plus or minus the statistical error.

[7] = test system: brain of rats with cerebral ischaemia; experiment: Effect on sugar and high energy phosphate metabolism in the brain of rats with cerebral ischaemia; format: in vivo, rat; settings: 1 mg/kg or 10 mg/kg intraperitoneal
Method: Cerebral ischaemia was induced in rats and the sugar and high energy phosphate metabolism in the brain was investigated.
Both carotid arteries of the test rats were ligated and, at the same time, the compound under test was administered by intraperitoneal injection. The amounts of sugars and metabolic products thereof (glucose and lactic acid) and high energy phosphate (ATP-adenosine triphosphate) in the brain were determined by the method of Lowry and Passonneau (A flexible system of enzymatic analysis, Academic Press, New York, 1972). When Compound No. 131 was administered at levels of 1 mg/kg or 10 mg/kg, there was observed an increase in glucose levels, a decrease in lactic acid levels and an increase in ATP levels in the rats with cerebral ischaemia.

[8] = test system: righting reflex and spontaneous locomotive activity; experiment: Brain concussive test; format: in vivo; settings: 10 mg/kg intraperitoneally, 17 mice
Method: The test compound, suspended in an aqueous solution of carboxymethylcellulose, was administered intraperitoneally to mice. After 30 minutes, a 16 g weight was dropped from a height of 50 cm onto the head of each mouse, and the time was measured for each mouse to recover its righting reflex and spontaneous locomotive activity.
A similar experiment was carried out as a control, using the carboxymethylcellulose solution without any active compound.
The results are reported in Table 6 as the mean time (in seconds) plus or minus the statistical error. There were 20 mice in the control group and 17 mice in the group to which the test compound was administered.

[9] = test system: rats; experiment: Toxicity (mortality of male Fisher rats, daily doses for four days); format: in vivo, male rats of the Fisher strain; settings: 100 mg/kg daily
Method: The compounds under test were griseolic acid and Compounds No. 26 and 51 from the list of compounds of the invention set out hereinabove. The test animals were male rats of the Fisher strain. The rats were employed in groups of five for each test.
The compounds under test were administered at single daily doses of 50 mg/kg or 100 mg/kg throughout the four days of the test.

SMILES: CCC(=O)Nc1ncnc2c1ncn2C1OC2=CC(C(=O)OC(c3ccccc3)c3ccccc3)(C(OC(=O)CC)C(=O)OC(c3ccccc3)c3ccccc3)OC2C1OC(=O)CC (centres unmarked) [Compound No. 10, dibenzhydryl N^6,O^2',O^7' -tripropionylgriseolate]
- blood viscosity, shear rates without significant rise after ligation ([1]; 30 mg/kg oral): ++++
- blood viscosity, shear rates without significant rise after ligation ([1]; 50 mg/kg oral): ++++
- minimal effective dose ([1]; oral): ≥ 50 mg/kg

SMILES: O=C(O)[C@H](O)C1(C(=O)O)C=C2OC(n3cnc4c(S)ncnc43)[C@H](O)C2O1 (some centres unmarked) [Compound No. 54, 6-desamino-6-mercaptogriseolic acid]
- IC50 ([2]; 0.14 μM 14C-labeled cAMP, pH 8.0, 30° C., 20 minutes, crude enzyme from rat brains, read-out: I50 cAMP PDE): 19 µM
- IC50 [3]: 9.1 µM
- minimal effective dose ([1]; oral): ≥ 50 mg/kg

SMILES: CC(=O)OC1C2OC(C(=O)OC(c3ccccc3)c3ccccc3)(C(OC(C)=O)C(=O)OC(c3ccccc3)c3ccccc3)C=C2OC1n1cnc2c(=O)[nH]cnc21 (centres unmarked) [Compound No. 71, dibenzhydryl O^2',O^7' -diacetyl-6-desamino-6-hydroxygriseolate]
- Total number of passing erythrocytes × 10^9 [4]: 3.00 ± 0.16 × 10^9
- Duration (T 1/2) [5]: > 1 h
- Increase in cerebral blood flow (Vp), ratio to papaverine 1 mg/kg [5]: 3.0

SMILES: O=C(Nc1ncnc2c1ncn2C1OC2=CC(C(=O)O)([C@@H](OC(=O)c3ccccc3)C(=O)O)OC2[C@H]1OC(=O)c1ccccc1)c1ccccc1 (some centres unmarked) [Compound No. 131, N^6,O^2',O^7' -tribenzoylgriseolic acid]
- Recovery time ([6]; 10 mg/kg intraperitoneally, n=8): 14.5 ± 1.2 s
- Recovery time ([6]; 30 mg/kg intraperitoneally, n=8, P < 0.05): 13.8 ± 1.3 s
- ATP levels in brain [7]: increase
- glucose levels in brain [7]: increase
- lactic acid levels in brain [7]: decrease
- Total number of passing erythrocytes × 10^9 [4]: 3.30 ± 0.28 × 10^9
- blood viscosity, shear rates without significant rise after ligation ([1]; 30 mg/kg oral): +
- blood viscosity, shear rates without significant rise after ligation ([1]; 100 mg/kg oral): ++++
- minimal effective dose ([1]; oral): ≥ 30 mg/kg

SMILES: Nc1ncnc2c1ncn2C1OC23OC(C(=O)OC(c4ccccc4)c4ccccc4)C(C(=O)OC(c4ccccc4)c4ccccc4)(OC2C1O)C3Br (stereo not drawn) [Compound No. 202, dibenzhydryl 4',7'-anhydro-5'α-bromo-4'α-hydroxygriseolate]
- blood viscosity, shear rates without significant rise after ligation ([1]; 10 mg/kg oral): +
- dose levels at which significant improvement (i.e. stabilisation) in blood viscosity was achieved ([1]; oral, in words): all dose levels
- Recovery time, righting reflex [8]: 20.9 ± 2.9 s
- Recovery time, spontaneous locomotive activity ([8]; P < 0.05): 72.8 ± 15.7 s

SMILES: Nc1ncnc2c1ncn2C1OC2=CC(C(=O)O)([C@@H](O)C(=O)O)OC2[C@H]1O (some centres unmarked) [Griseolic acid, griseolic acid]
- mortality after day 3 ([9]; after day 3): 3/5
- mortality for the first two days ([9]; first two days): 0/5
- mortality at the end of the test ([9]; four days, male Fisher rats): 3/5
- ability to inhibit cAMP phosphodiesterase ([2]; in words): has the ability to inhibit the activity of cyclic adenosine monophosphate (cAMP) phosphodiesterase (PDE)
